A short description of series [1]: Fluorescence correlation spectroscopy (FCS) diffusion time. In kind it is physicochemical. Particulars: mean±STD (n=3). From the text: FCS is a quantitative technique, which detects fluorescence intensity fluctuations as fluorescent molecules diffuse through a small observation volume (<1 femtoliter). Statistical analysis of these fluorescence intensity fluctuations allows simultaneous determination of the number of fluorescent species in the system and their mobility.
In our case the observation volume is defined by the focal volume of a laser scanning microscope, while the statistical analysis of the intensity trace is calculated as follows: […]
The correlation curve obtained from the experiment is fitted with a mathematical function which describes the fluorescence intensity fluctuations in the observation volume according to Brownian diffusion and it also accounts for the photophysical characteristics of the dye:
where N is the average number of fluorescent particles in the observation volume, T is the fraction of fluorophores in the triplet state, τT is the lifetime of the triplet state of the fluorophore, τD is the characteristic diffusion time of the fluorophore, ω0 the waist radius of the laser focus. […]
The waist of the focus ω0 was determined by fitting the autocorrelation curve obtained in the same experimental conditions using free Alexa Fluor 488 [22]. In the case of labeled peptide binding to the nanoparticles the correlation curves were analyzed using the two component model as was described previously.

A short description of series [2]: Surface plasmon resonance of NBD-Linker incorporation into PFC nanoparticles. In kind it is binding. Conditions: NBD-Linker on immobilized PFC nanoparticles, two-state model; read-out: dissociation constant of the entire process. As to the method:
The kinetics of NBD-Linker incorporation into lipid monolayers of PFC nanoparticles was studied by surface plasmon resonance (SPR). SPR detects change in the […] of a surface (Biacore-X 100 and carboxymethylated dextran chip L1 from Biacore Inc, Piscataway, N.J.). A uniform lipid monolayer on a L1 chip was created by injecting PFC nanoparticles (3 μl/min) for 30 minutes. Loosely deposited nanoparticles were removed by performing extra washing steps after immobilization to ensure a stable baseline. Complete coverage was confirmed by injecting the bovine serum albumin (1 mg/ml in PBS) at 15 μl/min for 2 minutes. Different peptides in selected concentrations were injected at a flow rate of 30 μl/min for 1 minute. At the end of each experiment the chip was regenerated by two consecutive injections of 3-[(3-cholamidopropyl)dimethylammonio]-1-propanesulfonate, CHAPS (50 μl, 100 μl/min). The data were analyzed with BiaEvaluation software (Biacore Inc, Piscataway, N.J.). A two-state model, [17].
To investigate the release rate of the NBD-Linker from the PFC nanoparticles, surface plasma resonance experiments were performed with a Biacore X 100, which allows quantitative analysis of interaction between peptide and lipid membrane. […] We consistently recorded two populations of peptides in the peptide-lipid interactions. […]

A short description of series [3]: Dynamic light scattering size and zeta potential of peptide-loaded PFOB/PFC nanoparticles. In kind it is physicochemical. Here is the method:
The size distributions of the nanoparticles with or without the linker peptide were analyzed by dynamic light scattering (Brookhaven Instruments Corp., Holtsville, N.Y.). Zeta potential (ζ) values were determined with a Brookhaven Instruments PALS Zeta Potential Analyzer (Brookhaven Instruments Corp., Holtsville, N.Y.). Data were acquired in the phase-analysis light scattering (PALS) mode following solution equilibration at 25° C. […] This change further confirms the insertion of the linker peptide 1 into the PFOB nanoparticles. Furthermore, the structural integrity of linker peptide 1 inserted PFOB nanoparticles was confirmed by transmission electron microscopy.
The size distributions of the nanoparticles with or without cargo incorporated were analyzed by dynamic light scattering (Brookhaven Instruments Corp., Holtsville, N.Y.). The size distribution was plotted by particle number. Zeta potential (ζ) values were determined with a Brookhaven Instruments PALS Zeta Potential Analyzer (Brookhaven Instruments Corp., Holtsville, N.Y.). Data were acquired in the phase-analysis light scattering (PALS) mode following solution equilibration at 25° C.

Series [4] is described as follows: Surface plasmon resonance (Biacore X 100) binding of peptides on immobilized perfluorocarbon nanoparticles. Particulars: VCAM-targeting peptides on perfluorocarbon nanoparticles; read-out: dissociation constant. As to the method:
In order to evaluate whether linker peptide 1 (LP1) and linker peptide 2 (LP2) still retained high affinity on a lipid monolayer of the nanoparticles, surface plasmon resonance (SPR) studies were performed by using Biacore X 100 (Biacore Inc, Piscataway, N.J.). The binding kinetics and affinity of LP1 and LP2 on two type of nanoparticles were studied. One type was perfluorocarbon nanoparticles (e.g., perfluorooctylbromide, PFOB), the other type was oil-based (safflower core) nanoparticles. PBS (Ca^2+ and Mg^2+ free) was used as the running buffer. Nanoparticles were immobilized on Biacore sensor chip L1 by injecting nanoparticles at a flow rate of 1 μl/min for 30 minutes, followed by a running buffer wash at a flow rate of 100 μl/min for 50 seconds. Peptides in selected concentrations, prepared in running buffer, were then injected at a flow rate of 30 μl/min for 1 minute. At the end of each experiment, the sensor chip surface was regenerated by injection of 3-[(3-cholamidopropyl)dimethylammonio]-1-propanesulfonate (CHAPS) at a flow rate of 100 μl/min for 24 seconds.
The binding kinetics of the resulting VCAM-targeting peptides (i.e., TCP1 and TCP2) on perfluorocarbon nanoparticles were examined using Biacore X 100. PBS (Ca^2+ and Mg^2+ free) was used as the running buffer. Nanoparticles were immobilized on Biacore sensor chip L1 by injecting nanoparticles at a flow rate of 1 μl/min for 30 minutes, followed by a running buffer wash at a flow rate of 100 μl/min for 50 seconds. Targeting peptide prepared at selected concentrations in running buffer was sequentially injected at a flow rate of 30 μl/min for 1 minute. At the end of each experiment, the sensor chip surface was regenerated by injection of 3-[(3-cholamidopropyl)dimethylammonio]-1-propanesulfonate (CHAPS) at a flow rate of 100 μl/min for 24 seconds. FIG. 8 presents selected sensorgrams at several different concentrations of the two VCAM-targeting peptides. The dissociation constant of TCP1 and TCP2 were 0.13 μM and 0.04 μM, respectively.

For another series, the target named is T1, VCAM-1 (Mus musculus, UniProt P29533).
T1 construct: endogenous in cells; host or cells: 2F2B endothelial cells, TNF-α stimulated
T1 sequence (P29533 25-739): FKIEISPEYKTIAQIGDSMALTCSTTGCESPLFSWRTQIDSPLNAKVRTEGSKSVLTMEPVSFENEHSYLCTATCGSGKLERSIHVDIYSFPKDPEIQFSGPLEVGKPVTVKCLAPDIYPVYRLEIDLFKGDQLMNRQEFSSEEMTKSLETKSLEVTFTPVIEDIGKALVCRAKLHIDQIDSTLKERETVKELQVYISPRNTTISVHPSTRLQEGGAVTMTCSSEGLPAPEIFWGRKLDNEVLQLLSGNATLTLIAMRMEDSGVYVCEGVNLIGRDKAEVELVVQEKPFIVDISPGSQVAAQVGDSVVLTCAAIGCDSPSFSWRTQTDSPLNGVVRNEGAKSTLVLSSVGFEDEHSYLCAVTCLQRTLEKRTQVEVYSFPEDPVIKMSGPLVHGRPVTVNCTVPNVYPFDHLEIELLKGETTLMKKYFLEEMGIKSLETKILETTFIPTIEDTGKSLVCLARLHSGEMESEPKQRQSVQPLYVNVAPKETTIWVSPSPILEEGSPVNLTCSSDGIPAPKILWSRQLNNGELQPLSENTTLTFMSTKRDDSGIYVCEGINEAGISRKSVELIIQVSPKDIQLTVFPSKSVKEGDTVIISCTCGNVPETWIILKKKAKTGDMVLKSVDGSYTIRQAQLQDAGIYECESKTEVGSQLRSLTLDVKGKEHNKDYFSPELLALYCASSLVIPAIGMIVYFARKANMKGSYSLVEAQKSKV
Nature of the series: Specific binding of VCAM targeted nanoparticles by confocal microscopy. Particulars: Alexa Fluor 488 labeled PFOB nanoparticles, TNF-α stimulated 2F2B cells, 1 hour. The series is classed as cell-based. Here is the method:
The specific binding of VCAM targeted nanoparticles was evaluated by confocal microscopy in 2F2B cells, which express VCAM-1 on the cell surface after TNF-α stimulation. Alexa Fluor 488 labeled PFOB nanoparticles comprising the VCAM-targeting peptide (TCP1 or TCP2) or nanoparticles themselves were incubated with TNF-α stimulated 2F2B cells in Delta T Culture dish at 37° C. for 1 hour, followed by five PBS washes. Cells were then fixed by incubation in 1 ml of 4% paraformaldehyde at 37° C. for 5 minutes. After fixation, the cells were washed with PBS for 5 times and the cells were visualized using a confocal microscope (Zeiss Meta 510, Thornwood, N.Y.) with standard filter sets. Concomitant differential interference contrast (DIC) imaging was used to determine the location of nanoparticles in the cells.

As to `N=c1ccc2c(-c3ccc(C(=O)O)cc3C(=O)O)c3ccc(N)c(S(=O)(=O)O)c3oc-2c1S(=O)(=O)O` [Alexa Fluor 488], the diffusion time in series [1] is 35.8±1.4 μsec.

Take “NBD peptide (TALDWSWLQTE) fused onto the N-terminal of linker peptide (VLTTGLPALISWIKRKRQQ) with two glycines as a spacer [NBD-Linker]”: in series [2], the Kd was determined as 140 nM. Moreover, the mean diameters entry in series [3] (PFC nanoparticles without and with various amount of peptide loading) is reported as “equivalent”.

Take VLTTGLPALISWIKRggVHPKQHR [TCP1]: in series [4], the Kd amounted to 130 nM. The zeta potential in series [3] (PFOB nanoparticles after incorporating the peptide (plain nanoparticles −17.62 mV)) came to 13.47 mV. Besides, in series [3] (PFOB nanoparticles with versus without inserted peptide), the average hydrodynamic diameter entry was “not affected”. Moreover, the “binding to cellular VCAM-1 (fluorescent signal)” value with VCAM-1 is recorded as “better binding”.

For the origin of these results see patent US8617516B2, “Universal anchor peptide for nanoparticles” (Washington University, priority 2008, dated 2013).
